Tests used:
[1] = test system: osteoarthritis of the knee; assay: Second Phase 2 study: WOMAC (VAS) pain subscale score; format: in vivo, human
Excerpt: This is a Phase 2, multicenter, randomized, double blind (within dose), Ibuprofen-placebo controlled, parallel group, dose range finding study to evaluate the efficacy, safety, and PK of 2-(diethylamino)ethyl 2-(4-isobutylphenyl)propionate spray in adult subjects with clinically symptomatic OA of the knee. For subjects with bilateral knee pain, both knees will be treated, but the most symptomatic knee (ie, the most painful knee as measured by the Western Ontario and McMaster University Osteoarthritis Index [WOMAC® 3.1] pain subscale score at Screening) will be designated as the target knee for efficacy analyses. For subjects with unilateral knee pain, only the symptomatic (target) knee will be treated.
The VAS version of the WOMAC will be used for the Primary and Secondary Efficacy Endpoints. Efficacy endpoints will be assessed at Screening and Baseline (Day 1) and at the Week 2, Week 4, Week 8, and Week 12/EOS visits.
The Primary Efficacy Endpoint is the change from Baseline in the WOMAC (VAS) pain subscale score for the target knee at […] of treatment.
4.9.2. Secondary Efficacy Endpoints: • 1. Change from Baseline in the WOMAC (VAS) pain subscale score for the target knee at 2, 8, and 12 weeks of treatment; • 2. Change from Baseline in the WOMAC (VAS) stiffness subscale scores for the target knee and WOMAC (VAS) functional ability subscale scores at 2, 4, 8, and 12 weeks of treatment; • 3. Change from Baseline in the overall WOMAC (VAS) score at 2, 4, 8, and 12 weeks of treatment; • 4. Subject's global assessment of disease status of the target knee at 2, 4, 8, and 12 weeks of treatment; • 5. Subject's global assessment of response to therapy of the target knee at 2, 4, 8, and 12 weeks of treatment; • 6. Amount of rescue medication (acetaminophen) consumed per day for target knee pain.
The Primary Efficacy Endpoint is change from Baseline in the WOMAC (VAS) pain subscale score for the target knee at 4 weeks of treatment, and will be analyzed using an analysis of covariance (ANCOVA). Treatment will be included as a fixed class effect and WOMAC Baseline pain subscale score as covariates. The primary comparisons of interest will be the difference between active Group A (4.375 mg 2-(diethylamino)ethyl 2-(4-isobutylphenyl)propionate/knee) and combined placebo, active Group B (8.75 mg 2-(diethylamino)ethyl 2-(4-isobutylphenyl)propionate/knee) and combined placebo, and active Group C (17.5 mg 2-(diethylamino)ethyl 2-(4-isobutylphenyl)propionate/knee) and combined placebo.

[2] = test system: osteoarthritis of the knee; assay: Second Phase 2 study: Subject's pain Assessment Scores (SPA); format: in vivo, human
Experimental: Subjects will record the following information in a Daily Diary starting at Screening: the amount of knee pain in the target knee while walking during the preceding 24 hours (using a 100 mm visual analog scale [VAS]), the times and number of sprays for each administration of study medication, the times when the subject washes his/her knees and/or takes a shower, the number of tablets of rescue medication taken that day and the times taken, the reason for taking the rescue medication (e.g., knee pain, headache, low back pain), any other concomitant medications taken that day, and any AEs occurring that day.

[3] = Baseline, oral, 3 × 400 mg (n = 20), first 130 subjects
[4] = Week 12, oral, 3 × 400 mg (n = 20), first 130 subjects
[5] = all subjects, Oral Ibuprofen 3 × 400 mg, n = 48, Week 12
[6] = all subjects, Oral Ibuprofen 3 × 400 mg, n = 48 vs. Placebo n = 48
[7] = oral 3×400 mg, first 130 subjects

CC(C)Cc1ccc(C(C)C(=O)O)cc1 (stereo not drawn) [Ibuprofen, 2-(4-isobutylphenyl)propionic acid, reference compound]
WOMAC Pain Subscale Scores, Baseline (LS Mean) [1, 3]: 67.0 mm | WOMAC Pain Subscale Scores, % of improvement from Placebo [1, 4]: 0.9% | WOMAC Pain Subscale Scores, % of improvement from baseline [1, 4]: −32.2% | WOMAC Pain Subscale Scores, Changes from Baseline (LS Mean) [1, 4]: −21.6 mm | WOMAC Pain Subscale Scores, Different from placebo (LS Mean) [1, 4]: −0.5 mm | WOMAC Pain Subscale Scores, Week 12 (LS Mean) [1, 4]: 45.4 mm | WOMAC Pain Subscale Scores, % of improvement from Placebo [1, 5]: −4.5% | WOMAC Pain Subscale Scores, % of improvement from baseline [1, 5]: −41.2% | WOMAC Pain Subscale Scores, Changes from Baseline (LS Mean) [1, 5]: −25.4 mm | WOMAC Pain Subscale Scores, Week 12 (LS Mean) [1, 5]: 36.3 mm | WOMAC Pain, difference vs. Placebo [1, 6]: −2.8 mm | WOMAC pain, difference from placebo [1, 7]: −0.5 mm | Subject’s pain Assessment Scores, Baseline (LS Mean) [2, 3]: 71.2 mm | Subject’s pain Assessment Scores, % of improvement from baseline [2, 4]: −36.2% | Subject’s pain Assessment Scores, % of improvement from placebo [2, 4]: −7.0% | Subject’s pain Assessment Scores, Changes from Baseline (LS Mean) [2, 4]: −25.8 mm | Subject’s pain Assessment Scores, Different from placebo (LS Mean) [2, 4]: −6.9 mm | Subject’s pain Assessment Scores, Week 12 (LS Mean) [2, 4]: 45.4 mm | Subject's pain Assessment Scores, % of improvement from Placebo [2, 5]: −8.4% | Subject's pain Assessment Scores, % of improvement from baseline [2, 5]: −45.4% | Subject's pain Assessment Scores, Changes from Baseline (LS Mean) [2, 5]: −30.5 mm | Subject's pain Assessment Scores, Week 12 (LS Mean) [2, 5]: 36.6 mm | SPA, difference vs. Placebo [2, 6]: −6.4 mm | SPA, difference from placebo [2, 7]: 6.1 mm
